Assay results: the supplement of paper PMC6045584
± gives the standard deviation of the averaged measurements.

Legend:
ABT-737 = compound: CN(C)CC[C@H](CSc1ccccc1)Nc1ccc(S(=O)(=O)NC(=O)c2ccc(N3CCN(Cc4ccccc4-c4ccc(Cl)cc4)CC3)cc2)cc1[N+](=O)[O-] [ABT-737]; experiment: area under dose-response curve of surviving fraction (unscaled, Aref=0) (surviving fraction x log10(nM)); higher = more resistant; settings: exposure time: 5 days; dose range 0.5-1000 nM
Method in brief: (§1)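 Tumour cell lines in 384-well plates were exposed for five days to eight inhibitor concentrations from 0.5 to 1000 nM. Viability was read by CellTiter-Glo luminescence, normalised to DMSO-only wells, in three screens per line. Dose-response survival curves were fitted to surviving fractions by 3-parameter logistic regression in the drc R package. Area under the curve is the unscaled activity area (Aref = 0) over log10 dose.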

LAPATINIB = compound: CS(=O)(=O)CCNCc1ccc(-c2ccc3ncnc(Nc4ccc(OCc5cccc(F)c5)c(Cl)c4)c3c2)o1 [LAPATINIB]; experiment: as above; settings: exposure time: 5 days; dose range 0.5-1000 nM
Method in brief: as §1

FLAVOPIRIDOL = compound: CN1CC[C@H](c2c(O)cc(O)c3c(=O)cc(-c4ccccc4Cl)oc23)[C@H](O)C1 [FLAVOPIRIDOL]; experiment: as above; settings: exposure time: 5 days; dose range 0.5-1000 nM
Method in brief: as §1

RESVERATROL = compound: Oc1ccc(/C=C/c2cc(O)cc(O)c2)cc1 [RESVERATROL]; experiment: as above; settings: exposure time: 5 days; dose range 0.5-1000 nM
Method in brief: as §1

2-METHOXYESTRADIOL = compound: COc1cc2c(cc1O)CC[C@@H]1[C@@H]2CC[C@]2(C)[C@@H](O)CC[C@@H]12 [2-METHOXYESTRADIOL]; experiment: as above; settings: exposure time: 5 days; dose range 0.5-1000 nM
Method in brief: as §1

DECITABINE = compound: Nc1ncn([C@H]2C[C@H](O)[C@@H](CO)O2)c(=O)n1 [DECITABINE]; experiment: as above; settings: exposure time: 5 days; dose range 0.5-1000 nM
Method in brief: as §1

DOXORUBICIN [1] = compound: T1, COc1cccc2c1C(=O)c1c(O)c3c(c(O)c1C2=O)C[C@@](O)(C(=O)CO)C[C@@H]3O[C@H]1C[C@H](N)[C@H](O)[C@H](C)O1 [DOXORUBICIN]; experiment: surviving fraction relative to DMSO-only wells; higher = less growth inhibition; settings: exposure time: 5 days
Method in brief: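 Log-phase tumour cell lines, 250–500 cells per well in 384-well plates, received inhibitors at 0.5, 1, 5, 10, 50, 100, 500 and 1000 nM continuously for five days, starting 24 hours after seeding. Viability was quantified with CellTiter-Glo luminescence and normalised to the median of DMSO-only wells to give surviving fraction. Three screens were run per line, and a line stayed in only with replicate Pearson r >0.7 and median Z' >0.3.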

[2] = compound: CCN(CC)CCCCNc1ncc2cc(-c3cc(OC)cc(OC)c3)c(NC(=O)NC(C)(C)C)nc2n1; experiment: area under dose-response curve of surviving fraction (unscaled, Aref=0) (surviving fraction x log10(nM)); higher = more resistant; settings: exposure time: 5 days; dose range 0.5-1000 nM
Method in brief: as §1

SALINOMYCIN = compound: CC[C@@H](C(=O)[C@@H](C)[C@@H](O)[C@H](C)[C@@H]1O[C@@H]([C@@H](CC)C(=O)O)CC[C@@H]1C)[C@H]1O[C@]2(C=C[C@@H](O)[C@]3(CC[C@@](C)([C@H]4CC[C@](O)(CC)[C@H](C)O4)O3)O2)[C@H](C)C[C@@H]1C [SALINOMYCIN]; experiment: as above; settings: exposure time: 5 days; dose range 0.5-1000 nM
Method in brief: as §1

VISMODEGIB = compound: CS(=O)(=O)c1ccc(C(=O)Nc2ccc(Cl)c(-c3ccccn3)c2)c(Cl)c1 [VISMODEGIB]; experiment: as above; settings: exposure time: 5 days; dose range 0.5-1000 nM
Method in brief: as §1

NUTLIN3 = compound: COc1ccc(C2=N[C@@H](c3ccc(Cl)cc3)[C@@H](c3ccc(Cl)cc3)N2C(=O)N2CCNC(=O)C2)c(OC(C)C)c1 [NUTLIN3]; experiment: as above; settings: exposure time: 5 days; dose range 0.5-1000 nM
Method in brief: as §1

DOXORUBICIN [3] = compound: T1, DOXORUBICIN; experiment: as above; settings: exposure time: 5 days; dose range 0.5-1000 nM
Method in brief: as §1

17-AAG = compound: C=CCNC1=C2C[C@@H](C)C[C@H](OC)[C@H](O)[C@@H](C)/C=C(\C)[C@H](OC(N)=O)[C@@H](OC)/C=C\C=C(/C)C(=O)NC(=CC1=O)C2=O [17-AAG]; experiment: as above; settings: exposure time: 5 days; dose range 0.5-1000 nM
Method in brief: as §1

Test System: CCK81 LARGE INTESTINE
- area under dose-response curve (ABT-737): 2.64
- area under dose-response curve (LAPATINIB): 1.95
- area under dose-response curve (FLAVOPIRIDOL): 1.69
- area under dose-response curve (RESVERATROL): 2.47
- area under dose-response curve (2-METHOXYESTRADIOL): 2.32
- area under dose-response curve (DECITABINE): 1.69

Test System: G292 BONE
- surviving fraction (DOXORUBICIN [1]; 0.5 nM): 1.03 ± 0.065
- surviving fraction (DOXORUBICIN [1]; 1 nM): 1 ± 0.037
- surviving fraction (DOXORUBICIN [1]; 5 nM): 0.816 ± 0.052
- surviving fraction (DOXORUBICIN [1]; 10 nM): 0.601 ± 0.059
- surviving fraction (DOXORUBICIN [1]; 50 nM): 0.388 ± 0.031
- surviving fraction (DOXORUBICIN [1]; 100 nM): 0.338 ± 0.0043
- surviving fraction (DOXORUBICIN [1]; 500 nM): 0.108 ± 0.006
- surviving fraction (DOXORUBICIN [1]; 1000 nM): 0.0887 ± 0.0033
- area under dose-response curve [2]: 2.16
- area under dose-response curve (SALINOMYCIN): 2.65
- area under dose-response curve (ABT-737): 3.45
- area under dose-response curve (LAPATINIB): 3.3
- area under dose-response curve (VISMODEGIB): 3.2
- area under dose-response curve (FLAVOPIRIDOL): 2.14
- area under dose-response curve (NUTLIN3): 3.34
- area under dose-response curve (RESVERATROL): 3.42
- area under dose-response curve (DOXORUBICIN [3]): 1.77
- area under dose-response curve (2-METHOXYESTRADIOL): 2.87
- area under dose-response curve (DECITABINE): 2.61
- area under dose-response curve (17-AAG): 1.84

Test System: HCC38 BREAST
- surviving fraction (DOXORUBICIN [1]; 0.5 nM): 1.23 ± 0.28
- surviving fraction (DOXORUBICIN [1]; 1 nM): 1.19 ± 0.18
- surviving fraction (DOXORUBICIN [1]; 5 nM): 1.1 ± 0.23
- surviving fraction (DOXORUBICIN [1]; 10 nM): 0.759 ± 0.14
- surviving fraction (DOXORUBICIN [1]; 50 nM): 0.301 ± 0.034
- surviving fraction (DOXORUBICIN [1]; 100 nM): 0.0897 ± 0.0085
- surviving fraction (DOXORUBICIN [1]; 500 nM): 0.0433 ± 0.0025
- surviving fraction (DOXORUBICIN [1]; 1000 nM): 0.044 ± 0.0079
- area under dose-response curve (SALINOMYCIN): 2.83
- area under dose-response curve (LAPATINIB): 3
- area under dose-response curve (VISMODEGIB): 2.67
- area under dose-response curve (FLAVOPIRIDOL): 2.36
- area under dose-response curve (NUTLIN3): 4.18
- area under dose-response curve (DOXORUBICIN [3]): 1.77
- area under dose-response curve (DECITABINE): 2.64
- area under dose-response curve (17-AAG): 0.903

Test System: HCC70 BREAST
- surviving fraction (DOXORUBICIN [1]; 0.5 nM): 0.966 ± 0.06
- surviving fraction (DOXORUBICIN [1]; 1 nM): 0.939 ± 0.021
- surviving fraction (DOXORUBICIN [1]; 5 nM): 0.986 ± 0.15
- surviving fraction (DOXORUBICIN [1]; 10 nM): 0.9 ± 0.13
- surviving fraction (DOXORUBICIN [1]; 50 nM): 0.33 ± 0.013
- surviving fraction (DOXORUBICIN [1]; 100 nM): 0.489 ± 0.045
- surviving fraction (DOXORUBICIN [1]; 500 nM): 0.15 ± 0.022
- surviving fraction (DOXORUBICIN [1]; 1000 nM): 0.0553 ± 0.017
- area under dose-response curve [2]: 3.36
- area under dose-response curve (SALINOMYCIN): 2.56
- area under dose-response curve (ABT-737): 3.49
- area under dose-response curve (LAPATINIB): 3.58
- area under dose-response curve (VISMODEGIB): 3.57
- area under dose-response curve (FLAVOPIRIDOL): 2.16
- area under dose-response curve (NUTLIN3): 3.49
- area under dose-response curve (RESVERATROL): 3.59
- area under dose-response curve (DOXORUBICIN [3]): 2.04
- area under dose-response curve (2-METHOXYESTRADIOL): 3.06
- area under dose-response curve (17-AAG): 1.53

Test System: HMLE3 BREAST
- surviving fraction (DOXORUBICIN [1]; 0.5 nM): 0.941 ± 0.088
- surviving fraction (DOXORUBICIN [1]; 1 nM): 1.04 ± 0.046
- surviving fraction (DOXORUBICIN [1]; 5 nM): 0.744 ± 0.081
- surviving fraction (DOXORUBICIN [1]; 10 nM): 0.405 ± 0.0065
- surviving fraction (DOXORUBICIN [1]; 50 nM): 0.231 ± 0.022
- surviving fraction (DOXORUBICIN [1]; 100 nM): 0.069 ± 0.018
- surviving fraction (DOXORUBICIN [1]; 500 nM): 0.02 ± 0.001
- surviving fraction (DOXORUBICIN [1]; 1000 nM): 0.0223 ± 0.00058
- area under dose-response curve [2]: 2.61
- area under dose-response curve (SALINOMYCIN): 2.7
- area under dose-response curve (ABT-737): 3.75
- area under dose-response curve (VISMODEGIB): 3.06
- area under dose-response curve (FLAVOPIRIDOL): 2.14
- area under dose-response curve (RESVERATROL): 3.42
- area under dose-response curve (DOXORUBICIN [3]): 1.36
- area under dose-response curve (2-METHOXYESTRADIOL): 3.23
- area under dose-response curve (DECITABINE): 2.98
- area under dose-response curve (17-AAG): 1.61

Test System: HMT3552 BREAST
- surviving fraction (DOXORUBICIN [1]; 0.5 nM): 1.09
- surviving fraction (DOXORUBICIN [1]; 1 nM): 0.911
- surviving fraction (DOXORUBICIN [1]; 5 nM): 0.949
- surviving fraction (DOXORUBICIN [1]; 10 nM): 0.817
- surviving fraction (DOXORUBICIN [1]; 50 nM): 0.154
- surviving fraction (DOXORUBICIN [1]; 100 nM): 0.167
- surviving fraction (DOXORUBICIN [1]; 500 nM): 0.099
- surviving fraction (DOXORUBICIN [1]; 1000 nM): 0.027
- area under dose-response curve (ABT-737): 3.5
- area under dose-response curve (LAPATINIB): 3.24
- area under dose-response curve (FLAVOPIRIDOL): 1.86
- area under dose-response curve (RESVERATROL): 3.64
- area under dose-response curve (2-METHOXYESTRADIOL): 2.95
- area under dose-response curve (DECITABINE): 3.71

Test System: HS578T BREAST
- surviving fraction (DOXORUBICIN [1]; 0.5 nM): 0.922 ± 0.097
- surviving fraction (DOXORUBICIN [1]; 1 nM): 0.958 ± 0.092
- surviving fraction (DOXORUBICIN [1]; 5 nM): 0.838 ± 0.1
- surviving fraction (DOXORUBICIN [1]; 10 nM): 0.693 ± 0.013
- surviving fraction (DOXORUBICIN [1]; 50 nM): 0.483 ± 0.046
- surviving fraction (DOXORUBICIN [1]; 100 nM): 0.489 ± 0.066
- surviving fraction (DOXORUBICIN [1]; 500 nM): 0.094 ± 0.02
- surviving fraction (DOXORUBICIN [1]; 1000 nM): 0.037 ± 0.0079
- area under dose-response curve [2]: 3.03
- area under dose-response curve (SALINOMYCIN): 2.87
- area under dose-response curve (ABT-737): 3.8
- area under dose-response curve (LAPATINIB): 3.34
- area under dose-response curve (VISMODEGIB): 3.11
- area under dose-response curve (FLAVOPIRIDOL): 2.13
- area under dose-response curve (RESVERATROL): 3.82
- area under dose-response curve (DOXORUBICIN [3]): 1.93
- area under dose-response curve (2-METHOXYESTRADIOL): 2.71
- area under dose-response curve (DECITABINE): 2.99
- area under dose-response curve (17-AAG): 1.45
